# Assay results from patent EP2100602A1, “Method and compositions suitable for treatment of wounds” (QuoNova Europe GmbH, priority 2008, dated 2009).
# System: Pseudomonas aeruginosa
# Assay: Porcine second degree burn wound model infected with Pseudomonas aeruginosa; flush culture (planktonic) and scrub culture (biofilm) counts
# Format: in vivo
# Conditions: pig burn wounds; for reduction of counts of planktonic P. aeruginosa: ointment without SSD; for reduction of biofilm bacteria: treatment within 20 minutes of inoculation, compared to the vehicle control, SSD not printed for these labels
# [1] = used within 20 minutes of wound inoculation
SMILES,reduction of counts of planktonic P. aeruginosa (used on established biofilms),reduction of counts of planktonic P. aeruginosa [1],reduction of biofilm bacteria [Log],"reduction of biofilm P. aeruginosa (without SSD, used within 20 minutes) [Log]"
Cn1nc(C(C)(C)C)cc1C(=O)NNC(=O)c1ccc(Cl)s1 [Compound 1],largest reduction,largest reduction,2,1
CCCCCCCCCC(=O)CC(=O)Nc1cc(C)ns1 [Compound 2],,lower counts,1.5,
CCCCCCCCCC(=O)CC(=O)N(C)c1ccc(F)cc1 [Compound 3],,lower counts,,
